#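 Interpolation was linear, between the two tested concentrations surrounding the appropriate level; five concentrations were tested over 48 hours in 96-well plates. GI50 = concentration required for 50% inhibition of growth.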 The source made the active and inactive calls. No stated cut-off is given here; in the data, active = GI50 up to about 1.1 µM and inactive = higher.
# Legend:
# Assay in all cases: growth of human tumour cells (NCI), 48 h
# HCC 2998 = system: HCC 2998
# NCI-H23 = system: NCI-H23
# HCT-15 = system: HCT-15
# SR = system: SR
# OVCAR-3 = system: OVCAR-3
# CCRF-CEM = system: CCRF-CEM
# SF-295 = system: SF-295
# MOLT-4 = system: MOLT-4
# K562 = system: K562
# RPMI-8226 = system: RPMI-8226
# OVCAR-8 = system: OVCAR-8
# OVCAR-5 = system: OVCAR-5
# CAKI-1 = system: CAKI-1
# MCF7 = system: MCF7
# SW-620 = system: SW-620
# SK-MEL-2 = system: SK-MEL-2
# ACHN = system: ACHN
# RXF 393 = system: RXF 393
# IGROV-1 = system: IGROV-1
# OVCAR-4 = system: OVCAR-4
SMILES,GI50 (HCC 2998),GI50 (NCI-H23),GI50 (HCT-15) [µM],GI50 (SR),GI50 (OVCAR-3),GI50 (CCRF-CEM),GI50 (SF-295),GI50 (MOLT-4),GI50 (K562),GI50 (RPMI-8226),GI50 (OVCAR-8),GI50 (OVCAR-5),GI50 (CAKI-1),GI50 (MCF7),GI50 (SW-620),GI50 (SK-MEL-2),GI50 (ACHN),GI50 (RXF 393),GI50 (IGROV-1),GI50 (OVCAR-4)
CC1C(c2ccccc2)OP(=O)(OC(C#N)c2ccccc2)N1C (configuration not stated),48.4 µM (inactive),> 100 µM (inactive),> 100,91.4 µM (inactive),> 100 µM (inactive),29.2 µM (inactive),> 100 µM (inactive),37.8 µM (inactive),39.3 µM (inactive),33.5 µM (inactive),> 100 µM (inactive),> 100 µM (inactive),> 100 µM (inactive),37.6 µM (inactive),97.9 µM (inactive),48.2 µM (inactive),> 100 µM (inactive),> 100 µM (inactive),> 100 µM (inactive),–
Oc1ccc(/N=N/c2ccc(Cl)cc2)cc1,15.7 µM (inactive),16.4 µM (inactive),14.7,19.5 µM (inactive),21.7 µM (inactive),4.63 µM (inactive),16.4 µM (inactive),13.2 µM (inactive),19.6 µM (inactive),24.2 µM (inactive),16.6 µM (inactive),17.4 µM (inactive),14.4 µM (inactive),17.7 µM (inactive),30.5 µM (inactive),14.2 µM (inactive),12.9 µM (inactive),15.4 µM (inactive),12.9 µM (inactive),14.9 µM (inactive)
CCCN(CCCCN1C(=O)c2ccccc2C1=O)CC1COc2ccccc2O1 (configuration not stated),83.2 µM (inactive),55.3 µM (inactive),52.2,25.1 µM (inactive),> 100 µM (inactive),25.8 µM (inactive),> 100 µM (inactive),23.3 µM (inactive),42.1 µM (inactive),26.4 µM (inactive),> 100 µM (inactive),> 100 µM (inactive),> 100 µM (inactive),53.1 µM (inactive),> 100 µM (inactive),> 100 µM (inactive),> 100 µM (inactive),94.4 µM (inactive),> 100 µM (inactive),> 100 µM (inactive)
CC(=O)/N=C1/N(/C=C2\C(=O)Oc3ccccc3C2=O)C(=O)/C(=C/c2ccc(Cl)cc2Cl)N1C,> 100 µM (inactive),> 100 µM (inactive),> 100,17.4 µM (inactive),59.2 µM (inactive),66.8 µM (inactive),> 100 µM (inactive),40.7 µM (inactive),39.4 µM (inactive),26.4 µM (inactive),> 100 µM (inactive),> 100 µM (inactive),> 100 µM (inactive),> 100 µM (inactive),50.6 µM (inactive),71.4 µM (inactive),> 100 µM (inactive),> 100 µM (inactive),40 µM (inactive),> 100 µM (inactive)
N#CC(NC12CC3CC(CC(C3)C1)C2)c1ccccc1 (configuration not stated),> 100 µM (inactive),> 100 µM (inactive),> 100,> 100 µM (inactive),> 100 µM (inactive),20.8 µM (inactive),> 100 µM (inactive),> 100 µM (inactive),> 100 µM (inactive),> 100 µM (inactive),> 100 µM (inactive),> 100 µM (inactive),> 100 µM (inactive),> 100 µM (inactive),> 100 µM (inactive),> 100 µM (inactive),> 100 µM (inactive),> 100 µM (inactive),> 100 µM (inactive),> 100 µM (inactive)
C=C(Cl)C(Cl)(CBr)CCC(Cl)C(C)(C)Cl (configuration not stated),4.52 µM (inactive),8.89 µM (inactive),3.57,15.1 µM (inactive),1.61 µM (inactive),8.63 µM (inactive),3.17 µM (inactive),17.7 µM (inactive),2.22 µM (inactive),0.112 µM (active),2.36 µM (inactive),2.83 µM (inactive),1.08 µM (active),0.879 µM (active),1.47 µM (inactive),0.238 µM (active),1.77 µM (inactive),1.35 µM (inactive),6.84 µM (inactive),1.09 µM (active)
CC(=O)OCC(OC(C)=O)C(OC(C)=O)C(OC(C)=O)C(/C=N\Nc1nc2ccccc2c(=O)[nH]1)=N/Nc1nc2ccccc2c(=O)[nH]1 (configuration not stated),85.5 µM (inactive),> 100 µM (inactive),> 100,> 100 µM (inactive),> 100 µM (inactive),> 100 µM (inactive),> 100 µM (inactive),> 100 µM (inactive),> 100 µM (inactive),> 100 µM (inactive),> 100 µM (inactive),> 100 µM (inactive),> 100 µM (inactive),> 100 µM (inactive),> 100 µM (inactive),> 100 µM (inactive),> 100 µM (inactive),> 100 µM (inactive),–,–
